Measured values reported in ChEMBL document CHEMBL5532678, “Comprehensive Insights that Targeting PIM for Cancer Therapy: Prospects and Obstacles” (J Med Chem, 2024).

Target: T1, Receptor-type tyrosine-protein kinase FLT3 (Homo sapiens, UniProt P36888)
T1 sequence (P36888 whole entry): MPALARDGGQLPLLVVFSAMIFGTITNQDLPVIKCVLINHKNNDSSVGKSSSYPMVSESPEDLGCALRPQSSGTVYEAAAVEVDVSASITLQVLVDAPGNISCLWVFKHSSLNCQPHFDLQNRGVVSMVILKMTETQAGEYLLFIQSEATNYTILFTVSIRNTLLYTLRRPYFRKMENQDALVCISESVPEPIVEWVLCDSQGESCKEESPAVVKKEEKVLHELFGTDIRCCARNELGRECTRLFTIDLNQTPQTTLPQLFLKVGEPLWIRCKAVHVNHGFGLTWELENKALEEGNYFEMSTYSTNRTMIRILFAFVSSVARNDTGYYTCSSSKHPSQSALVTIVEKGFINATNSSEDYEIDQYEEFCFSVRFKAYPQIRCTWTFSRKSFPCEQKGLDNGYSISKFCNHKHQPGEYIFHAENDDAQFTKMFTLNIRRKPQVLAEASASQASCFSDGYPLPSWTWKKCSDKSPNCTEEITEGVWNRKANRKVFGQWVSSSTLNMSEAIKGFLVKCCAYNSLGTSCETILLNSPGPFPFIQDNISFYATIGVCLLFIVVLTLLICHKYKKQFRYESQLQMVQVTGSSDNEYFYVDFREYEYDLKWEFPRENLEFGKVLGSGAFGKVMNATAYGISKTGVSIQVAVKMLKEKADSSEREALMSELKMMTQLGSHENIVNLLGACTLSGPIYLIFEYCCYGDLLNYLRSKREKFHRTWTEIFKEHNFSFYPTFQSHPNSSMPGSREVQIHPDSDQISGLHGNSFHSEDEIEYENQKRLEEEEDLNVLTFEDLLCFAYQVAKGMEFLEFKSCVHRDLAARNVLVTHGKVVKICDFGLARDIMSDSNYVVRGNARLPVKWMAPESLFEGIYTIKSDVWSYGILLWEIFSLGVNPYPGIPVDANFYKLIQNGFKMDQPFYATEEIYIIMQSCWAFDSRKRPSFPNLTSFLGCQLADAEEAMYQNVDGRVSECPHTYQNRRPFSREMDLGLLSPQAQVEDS
Assay: Inhibition of FLT3 (unknown origin)

## N[C@H]1CC[C@@H](Nc2cncc(-c3cccc(CC4SC(=O)NC4=O)c3)n2)CC1 (stereo partly specified)
  IC50: 0.11 nM
